Measurements: US4780466A, “Arylpiperazinylalkoxy derivatives of cyclic imides” (Hoechst-Roussel Pharmaceuticals, Inc., priority 1988, dated 1988)
Where a name gives a salt, the structure may show the parent alone.

What was measured:
Type in all cases: in vivo
[1] = test system: mice; test: 2-phenyl-1,4-benzoquinone-induced writhing test in mice (analgesic activity); settings: Mus musculus, sc, read-out: Phenylquinone Writhing ED50
From the text: Compounds of the present invention are also useful as analgesic agents due to their ability to alleviate pain in mammals. […] Exptl. Biol. Med., 95,729 (1957)]

[2] = test system: rats; test: Geller-conflict paradigm with rats (anxiolytic activity); settings: 10 mg/kg i.p.; pretreat interval usually one-half hour; male rats
From the text: Compounds I of the present invention are also useful as anxiolytic agents. […] See Geller, Irving and Seifter, Psychopharmacologia Col. 1, 482-492 (1962). Male rats are used as test subjects. They are housed individually and food and water are available ad libitum until they are 300 to 400 grams prior to the start of training. Subsequently they are food deprived until their body weight is reduced to approximately 80% of original and it is maintained at this level by a restricted food diet.
The programming and test equipment consists of solid state devices, shockers and cages within sound-attentuated environmental enclosures. The data is recorded on both solid state print-out counters and cumulative recorders. The cages are equipped with a house-light, a single-lever, cue-lights, a liquid dipper, a speaker and a grid-floor connected to a shocker. Sweetened condensed milk delivered by the liquid-dipper serve as the positive reinforcement for all subjects.
The subjects are trained to lever-press for the milk reward in two distinct response-reward sections. In the anxiety or "conflict" segment, signaled by onset of both tone and cue-lights, a dipper of milk is delivered in response to each lever-press (CRF schedule of reinforcement). However lever presses during this period are also accompanied by a 40 m sec pulse of aversive footshock through the grid-floor. […]

[3] = test system: mice; test: Climbing mice assay (antipsychotic activity, apomorphine-induced climbing); settings: Mus musculus; ip, 30 minutes prior to apomorphine 1.5 mg/kg s.c.; CK-1 male mice
Experimental: Antipsychotic activity is determined in the climbing mice assay by methods similar to those described by P. Protais, et al., Psychopharmacol., 50, 1 (1976) and B. Costall, Eur. J. Pharmacol., 50, 39, (1978).
The subject CK-1 male mice (23-27 grams) are group-housed under standard laboratory conditions. The mice are individually placed in wire mesh stick cages (4'×4" by 10") and are allowed one hour for adaptation and exploration of the new environment. Then apomorphine is injected subcutaneously at 1.5 mg/kg, a dose causing climbing in all subjects for 30 minutes. Compounds to be tested for antipsychotic activity are injected intraperitoneally 30 minutes prior to the apomorphine challenge at a screening dose of 10 mg/kg.
For evaluation of climbing, 3 readings are taken at 10, 20 and 30 minutes after apomorphine administration according to the following scale:
4 paws on bottom (no climbing)
2 paws on the wall (rearing)
4 paws on the wall (full climb)
Mice consistently climbing before the injection of apomorphine are discarded.
With full-developed apomorphine climbing, the animals are hanging onto the cage walls, rather motionless, over longer periods of time. By constrast, climbs due to mere motor stimulation usually last only a few seconds.
The climbing scores are individually totaled (maximum score: 6 per mouse over 3 readings) and the total score of the control group (vehicle intraperitoneally; apomorphine subcutaneously) is set to 100%. ED50 values with 95% confidence limits, calculated by a linear regression analysis of some of the compounds of this invention are presented in Table 1.

Row | SMILES | ED50 [1] | Geller CRF ratio [2] | ED50 [3]
1 | COc1ccccc1N1CCN(CCCON2C(=O)CC3(CCCC3)CC2=O)CC1 [8-[3-[4-(2-Methoxyphenyl)-1-piperazinyl-propyloxy]-8-azaspiro[4.5]decan-7,9-dione hydrochloride hemihydrate] | 1.1 mg/kg |  | 
2 | CNC1=Nc2ccc(Cl)cc2C(c2ccccc2)=[N+]([O-])C1 [Chlorodiazepoxide, reference compound] |  | 3.6 | 
3 | CN1CCN(C2=Nc3cc(Cl)ccc3Nc3ccccc32)CC1 [Clazapine, reference compound] |  |  | 8.1 mg/kg
4 | Cc1cccc(N2CCN(CCCON3C(=O)CC4(CCCC4)CC3=O)CC2)c1 [Example 5, 8-[3-[4-(3-Methylphenyl)-1-piperazinyl]propyloxy]-8-azaspiro[4.5]decan-7,9-dione hydrochloride hemihydrate] |  | 7.5 | 
5 | COc1cccc(N2CCN(CCCON3C(=O)CC4(CCCC4)CC3=O)CC2)c1 [Example 8, 8-[3-[4-(3-Methoxyphenyl)-1-piperazinyl]propyloxy]-8-azaspiro-[4.5]decan-7,9-dione hydrochloride hemihydrate] |  |  | 10.9 mg/kg
6 | O=C1CC2(CCCC2)CC(=O)N1OCCCN1CCN(c2nsc3ccccc23)CC1 [Example 11, 8-[3-[4-(1,2-Benzisothiazol-3-yl)-1-piperazinyl]propyloxy]-8-azaspiro[4.5]decan-7,9-dione hydrochloride hemihydrate] | 0.9 mg/kg |  | 5.7 mg/kg
7 | CC(C)=CCN1CCC2(C)c3cc(O)ccc3CC1C2C (centres unmarked) [Pentazocine, reference compound] | 1.3 mg/kg |  | 
